Results on 31 compounds are retold here after patent US8563717B2, “Adenine derivatives” (GlaxoSmithKline LLC, priority 2008, dated 2013).

Structures are written as SMILES. Counter-ions that a name gives are not always drawn.

In this assay the test system is Interferon-α. Nature of the assay: Induction of Interferon-α using cryopreserved human PBMCs. The format is cell-based. As to conditions: PBMC, 24 h incubation, normalised to 1 uM resiquimod, read-out: mean pEC50 for induction of IFN-α (converted). The procedure:
Assay for the Induction of Interferon-α Using Cryopreserved Human Peripheral Blood Mononuclear Cells (PBMCs)
Compounds were dissolved in DMSO. Serial 2-fold dilutions with DMSO were prepared and 0.25 μl dispensed into 384-well clear Greiner polypropylene plates.
Blood samples of up to 200 ml were obtained from healthy human donors. Whole blood in 25 ml volumes was overlaid onto 15 ml Ficoll gradients in Leucosep tubes, and centrifuged at 1000 g for 20 min. Cells in the band at the plasma/histopaque interface were carefully removed and washed twice with PBS (centrifuged at 400 g for 5 min to harvest). The final pellet was resuspended in freezing medium (90% Heat-inactivated serum, 10% DMSO) to a cell concentration of 4×10^7 cells/ml. The resuspended cells were then cryopreserved (frozen) using a rate controlled freezer, and stored at −140° C. for up to 4 months.
Immediately prior to assay, vials of cryopreserved (frozen) PBMCs were thawed rapidly in a water bath at 37° C. A 1:10 dilution of the cells in trypan blue was prepared and counted. The PBMCs were then diluted in growth media [RPMI 1640 containing 10% fetal calf serum (invitrogen), Penicillin+[…] (Gibco cat. #25030-024, 1:50), L-Glutamine 2 mM, and 1000 units/ml recombinant human IFN-gamma (Preprotech catalogue #300-02)] to a density of 1×10^6 cells/ml, and 50 ul/well dispensed to 384-well clear Greiner polypropylene plates containing 0.25 μl DMSO or test compound in 0.25 μl DMSO. […] Plates were incubated for 24 h at 37° C. in 5% CO2.
A multi-isoform immunoassay was used to quantify IFN-α in PBMC supernatants. Rabbit polyclonal antibody against human IFN-α (catalogue number 31101, Stratech Scientific) was diluted 1:10000 in assay buffer (RPMI 1640 containing 10% fetal calf serum, Invitrogen) and 20 μl was added to each well of an MSD (Meso-Scale Discovery) single small-spot 384-well GAR (goat anti-rabbit antibody coated) plate. The plate was incubated for 1 hour at room temperature with vigorous shaking. Following three washes with PBS, 20 μl of cell supernatant were added to each well of the plate. The plate was then incubated for 1 hour at room temperature with vigorous shaking. A pair of monoclonal antibodies to IFN-α (catalogue numbers 21100 and 21112, Stratech Scientific) were labelled with sulfo-TAG (MSD), diluted 1:1000 in assay buffer and 20 μl added to each well of the plate. The plate was further incubated for 1 hour at room temperature with vigorous shaking. Following three washes with PBS, 30 μl of x2 T buffer (MSD) was added to each well and the plate was read on an MSD Sector 6000 plate reader.
Data were normalised to internal plate controls of 1 uM resiquimod (n=16) and DMSO (n=16). pEC50 values were derived by 4-parameter curve fit with IRLS in ActivityBase, from 11-point, two-fold serial dilution of test compounds.
Regarding `CCCCOc1nc(N)c2[nH]c(=O)n(CCCCCC3CCN(CCC)CC3)c2n1` [Example 124, 6-Amino-2-(butyloxy)-9-[5-(1-propyl-4-piperidinyl)pentyl]-7,9-dihydro-8H-purin-8-one], the EC50 is below 1.58 µM.

Regarding `CCCCOc1nc(N)c2[nH]c(=O)n(CCCCC3CCCN(CCC)C3)c2n1` (stereo not shown) [Example 57, 6-Amino-2-(butyloxy)-9-[4-(1-propyl-3-piperidinyl)butyl]-7,9-dihydro-8H-purin-8-one], the EC50 is below 1.58 µM.

Turning to `CCCCOc1nc(N)c2[nH]c(=O)n(CCC3CCCN(CCC)C3)c2n1` (stereo not shown) [Example 31, 6-Amino-2-(butyloxy)-9-[2-(1-propyl-3-piperidinyl)ethyl]-7,9-dihydro-8H-purin-8-one], the EC50 was below 1.58 µM.

Take `CCCCOc1nc(N)c2[nH]c(=O)n(CCCCCC3CCN(CC)CC3)c2n1` [Example 123, 6-Amino-2-(butyloxy)-9-[5-(1-ethyl-4-piperidinyl)pentyl]-7,9-dihydro-8H-purin-8-one]: the EC50 was below 1.58 µM.

Regarding `CCCCOc1nc(N)c2[nH]c(=O)n(CCCC3CCCN(CCCC)C3)c2n1` (stereo not shown) [Example 47, 6-Amino-2-(butyloxy)-9-[3-(1-butyl-3-piperidinyl)propyl]-7,9-dihydro-8H-purin-8-one], the EC50 is below 1.58 µM.

In the case of `CCCCOc1nc(N)c2[nH]c(=O)n(CCCC3CCN(CC(C)C)CC3)c2n1` [Example 97, 6-Amino-2-(butyloxy)-9-{3-[1-(2-methylpropyl)-4-piperidinyl]propyl}-7,9-dihydro-8H-purin-8-one], the EC50 is below 1.58 µM.

`CCCCOc1nc(N)c2[nH]c(=O)n(CCC3CCCN(CCCC)C3)c2n1` (stereo not shown) [Example 33, 6-Amino-2-(butyloxy)-9-[2-(1-butyl-3-piperidinyl)ethyl]-7,9-dihydro-8H-purin-8-one]: the EC50 is below 1.58 µM.

As to `CCCCOc1nc(N)c2[nH]c(=O)n(CC3CCN(CCC(C)C)CC3)c2n1` [Example 74, 6-Amino-2-(butyloxy)-9-{[1-(3-methylbutyl)-4-piperidinyl]methyl}-7,9-dihydro-8H-purin-8-one], the EC50 is below 1.58 µM.

Regarding `CCCCOc1nc(N)c2[nH]c(=O)n(CCC3CCN(CCCC)CC3)c2n1` [Example 82, 6-Amino-2-(butyloxy)-9-[2-(1-butyl-4-piperidinyl)ethyl]-7,9-dihydro-8H-purin-8-one], the EC50 is below 1.58 µM.

For the compound `CCCCOc1nc(N)c2[nH]c(=O)n(CC3CCN(C4CCCCC4)CC3)c2n1` [Example 76, 6-Amino-2-(butyloxy)-9-[(1-cyclohexyl-4-piperidinyl)methyl]-7,9-dihydro-8H-purin-8-one], the EC50 is below 1.58 µM.

For the compound `CCC[C@H](C)Oc1nc(N)c2[nH]c(=O)n(CCCC3CCCNC3)c2n1` (stereo partly drawn) [Example 53, 6-Amino-2-{[(1S)-1-methylbutyl]oxy}-9-[3-(3-piperidinyl)propyl]-7,9-dihydro-8H-purin-8-one], the EC50 is below 1.58 µM.

Consider `CCCCOc1nc(N)c2[nH]c(=O)n(CCCCC3CCNCC3)c2n1` [Example 107, 6-Amino-2-(butyloxy)-9-[4-(4-piperidinyl)butyl]-7,9-dihydro-8H-purin-8-one], for which the EC50 was below 1.58 µM.

Turning to `CCC[C@H](C)Oc1nc(N)c2[nH]c(=O)n(CCCC3CCN(CC)CC3)c2n1` [Example 105, 6-Amino-9-[3-(1-ethyl-4-piperidinyl)propyl]-2-{[(1S)-1-methylbutyl]oxy}-7,9-dihydro-8H-purin-8-one], the EC50 is below 1.58 µM.

In the case of `CCCCOc1nc(N)c2[nH]c(=O)n(CCCC3CCCN(CCC4CCCCC4)C3)c2n1` (stereo not shown) [Example 52, 6-Amino-2-(butyloxy)-9-{3-[1-(2-cyclohexylethyl)-3-piperidinyl]propyl}-7,9-dihydro-8H-purin-8-one], the EC50 is below 1.58 µM.

For `CCCCOc1nc(N)c2[nH]c(=O)n(CCCC3CCNCC3)c2n1` [Example 93, 6-Amino-2-(butyloxy)-9-[3-(4-piperidinyl)propyl]-7,9-dihydro-8H-purin-8-one], the EC50 was below 1.58 µM.

In the case of `CCCCOc1nc(N)c2[nH]c(=O)n(CCCCC3CCN(C4CCCC4)CC3)c2n1` [Example 114, 6-Amino-2-(butyloxy)-9-[4-(1-cyclopentyl-4-piperidinyl)butyl]-7,9-dihydro-8H-purin-8-one], the EC50 is below 1.58 µM.

Take `CCCCOc1nc(N)c2[nH]c(=O)n(CCCCCC3CCN(C(C)C)CC3)c2n1` [Example 125, 6-Amino-2-(butyloxy)-9-{5-[1-(1-methylethyl)-4-piperidinyl]pentyl}-7,9-dihydro-8H-purin-8-one]: the EC50 is below 1.58 µM.

On to `CCCCOc1nc(N)c2[nH]c(=O)n(CCCC3CCCCN3CCC(C)C)c2n1` (stereo not shown) [Example 19, 6-Amino-2-(butyloxy)-9-{3-[1-(3-methylbutyl)-2-piperidinyl]propyl}-7,9-dihydro-8H-purin-8-one], for which the EC50 is below 1.58 µM.

As for `CCCCNc1nc(N)c2[nH]c(=O)n(CCCCC3CCN(CC)CC3)c2n1` [Example 121, 6-Amino-2-(butylamino)-9-[4-(1-ethyl-4-piperidinyl)butyl]-7,9-dihydro-8H-purin-8-one], the EC50 was below 1.58 µM.

As for `CCCCOc1nc(N)c2[nH]c(=O)n(CCCC3CCCCN3CCC3CCCCC3)c2n1` (stereo not shown) [Example 22, 6-Amino-2-(butyloxy)-9-{3-[1-(2-cyclohexylethyl)-2-piperidinyl]propyl}-7,9-dihydro-8H-purin-8-one], the EC50 was below 1.58 µM.

As for `CCCCOc1nc(N)c2[nH]c(=O)n(CCCCCCC3CCN(C(C)C)CC3)c2n1` [Example 134, 6-Amino-2-(butyloxy)-9-{6-[1-(1-methylethyl)-4-piperidinyl]hexyl}-7,9-dihydro-8H-purin-8-one], the EC50 is below 1.58 µM.

As for `CCCCOc1nc(N)c2[nH]c(=O)n(CCC3CCCN(CC4CCCC4)C3)c2n1` (stereo not shown) [Example 37, 6-Amino-2-(butyloxy)-9-{2-[1-(cyclopentylmethyl)-3-piperidinyl]ethyl}-7,9-dihydro-8H-purin-8-one], the EC50 is below 1.58 µM.

Turning to `CCCCOc1nc(N)c2[nH]c(=O)n(CCC3CCCN(C(CC)CC)C3)c2n1` (stereo not shown) [Example 35, 6-Amino-2-(butyloxy)-9-{2-[1-(1-ethylpropyl)-3-piperidinyl]ethyl}-7,9-dihydro-8H-purin-8-one], the EC50 is below 1.58 µM.

Consider `CCCCOc1nc(N)c2[nH]c(=O)n(CCCCCC3CCN(CCC(C)C)CC3)c2n1` [Example 128, 6-amino-2-(butyloxy)-9-{5-[1-(3-methylbutyl)-4-piperidinyl]pentyl}-7,9-dihydro-8H-purin-8-one], for which the EC50 is below 1.58 µM.

With `CCCCOc1nc(N)c2[nH]c(=O)n(CCCCC3CCCN(CC4CCCC4)C3)c2n1` (stereo not shown) [Example 63, 6-Amino-2-(butyloxy)-9-{4-[1-(cyclopentylmethyl)-3-piperidinyl]butyl}-7,9-dihydro-8H-burin-8-one hydrochloride], the EC50 was below 1.58 µM.

With `CCCCOc1nc(N)c2[nH]c(=O)n(CC3CCN(C(C)C)CC3)c2n1` [Example 71, 6-Amino-2-(butyloxy)-9-{[1-(1-methylethyl)-4-piperidinyl]methyl}-7,9-dihydro-8H-purin-8-one], the EC50 was below 1.58 µM.

For the compound `CCC[C@H](C)Oc1nc(N)c2[nH]c(=O)n(CC3CCNCC3)c2n1` [Example 77, 6-Amino-2-{[(1S)-1-Methylbutyl]oxy}-9-(4-piperidinylmethyl)-7,9-dihydro-8H-purin-8-one], the EC50 is below 1.58 µM.

As for `CCCCOc1nc(N)c2[nH]c(=O)n(CCCCCCC3CCN(CC)CC3)c2n1` [Example 133, 6-Amino-2-(butyloxy)-9-[6-(1-ethyl-4-piperidinyl)hexyl]-7,9-dihydro-8H-purin-8-one], the EC50 is below 1.58 µM.

`CCCCOc1nc(N)c2[nH]c(=O)n(CCCC3CCCCN3)c2n1` (stereo not shown) [Example 13, 6-Amino-2-(butyloxy)-9-[3-(2-piperidinyl)propyl]-7,9-dihydro-8H-purin-8-one]: the EC50 was below 1.58 µM.

Consider `CCCCOc1nc(N)c2[nH]c(=O)n(CCCCCC3CCCNC3)c2n1` (stereo not shown) [Example 67, 6-Amino-2-(butyloxy)-9-[5-(3-piperidinyl)pentyl]-7,9-dihydro-8H-purin-8-one], for which the EC50 is below 1.58 µM.

Turning to `CCCCOc1nc(N)c2[nH]c(=O)n(CCCC3CCN(C(CC)CC)CC3)c2n1` [Example 98, 6-Amino-2-(butyloxy)-9-{3-[1-(1-ethylpropyl)-4-piperidinyl]propyl}-7,9-dihydro-8H-burin-8-one], the EC50 is below 1.58 µM.
